# Measurements taken from patent publication US5972357A, “Healthy foods and cosmetics” (Kikkoman Corporation, priority 1996, dated 1999).
# Counter-ions that a name gives are not always drawn. Like-named read-outs stand apart in the source and are kept apart here.
# What was measured:
# gastric ulcer [1] = experiment: anti-ulcer test against stress ulcer (restrained immersion into water); type: in vivo, Wistar/ST male rats; conditions: 200 mg/kg oral
# Method: Gastric ulcer was induced in Wistar/ST male rats having a weight of about 200 g (6 w) by the stress of restrained immersion into water and the anti-ulcer effects of the test samples were examined in the following groups to which test samples were administered.
# (§1) Each group comprises six rats.
# (§2) Group 1: (control) physiological saline
# Group 2: (comparative) cetraxate hydrochloride 200 mg/kg
# Group 3: (the present invention) garcinol 200 mg/kg
# In this connection, the test samples in the control, comparative group and the present invention group were prepared in the same manner as in Experimental Example 9.
# Rats having fasted for 24 hours were locked up in a restrained dipping cage after 30 minutes from the oral administration of respective test samples. Next, rats were stressed by dipping the cage into water at 23° C. for 7 hours, and bleeded to death under anesthetization with nembutal, and stomach was isolated. A phosphate buffer (10 ml) containing 10% formalin was injected into the stomach, which was cut open after 10 minutes, and the length of lesion caused in the glandular stomach portion was defined as the lesion index, which was measured in the mm unit to evaluate the anti-ulcer effect.
# The method for calculating the suppression rate (%) and the meaning of it has been described in Experimental Example 9.
# gastric ulcer [2] = experiment: anti-ulcer test against indomethacin-induced gastric ulcer; type: in vivo, Wistar/ST male rats; conditions: 200 mg/kg oral; for Length of ulcer: 30 minutes before indomethacin (50 mg/kg s.c.), control 47.75 ± 6.08; for Suppression rate: indomethacin ulcer, vs. control
# Method: Ulcer was induced in Wistar/ST male rats having a weight of about 200 g (6 week-old) by indomethacin as a gastric ulcer inducing agent, and the anti-ulcer effects of the test samples were examined in the following six groups to which test samples were administered.
# as §1
# ______________________________________
# as §2
# Group 2: (comparative) cetraxate hydrochloride
# Group 3: (the present invention) garcinol
# Group 4: (the present invention) garcinol
# Group 5: (the present invention) garcinol
# Group 6: (the present invention) isogarcinol
# In this connection, physiological saline containing 1% sodium carboxymethylcellulose was used as the control, and cetraxate hydrochloride (trade name "Neuer®S", Daiichi Pharmaceuticals Co., Ltd.) which is clinically used as an anti-ulcer agent was used as the comparative sample. The cetraxate hydrochloride insoluble in water was ground into fine powder with a mortar and a pestle and used as a suspension in a 1% sodium carboxymethylcellulose solution. Also, garcinol and isogarcinol in the form of fine powder were used as the suspensions in a 1% sodium carboxymethylcellulose solution in the concentrations which are the doses in the groups. In this connection, garcinol and isogarcinol used in the section of the present invention were those obtained in Referential Examples 1 and 2, respectively.
# Experiment was carried out according to the method described by Yamahara et al. (see […] ZASSHI, 114, 401, 1994) which had been slightly modified. That is to say, indomethacin (50 mg/kg) was suspended in 1% sodium carboxymethylcellulose containing 0.1% Tween 20 (Sigma) and injected subcutaneously into the back of 24 hour fasted rats in an amount of 1 ml/rat. The samples in the six sections were orally administered at 30 minutes before administration of indomethacin. After 7 hours from the administration of indomethacin, rats were bleeded to death under anesthetization with nembutal, and stomach was isolated. A phosphate buffer (10 ml) containing 10% formalin was injected into the stomach, which was cut open after 10 minutes, and the length of lesion caused in the glandular stomach portion was defined as the lesion index, which was measured in the mm unit to evaluate the anti-ulcer effect. The suppression rate (%) in Table 1 means the value in which the difference of the length (mm) of ulcer in each group subtracted from the average length, 47.75 (mm) of ulcer in the control was divided with the average length, 47.75 (mm) of ulcer in the control. The larger the value, the stronger the anti-ulcer activity.
# [3] = DPPH radical scavenging activity; conditions: 0.0002% test substance, 1.0×10^-4 M DPPH, 25° C., 1 hour, 528 nm
# Method: The 1,1-diphenyl-2-picrylhydrazyl (DPPH) radical scavenging activity was tested with a garcinol preparation prepared in the similar manner as described in Referential Example 1. That is to say, a 1.0×10^-4 M solution (50% ethanolic) of DPPH was prepared, 0.0002% of a test substance was added, and the decrease of optical density at 528 nm was measured after 1 hour reaction at 25° C. for one hour. In this case, ascorbic acid was used as a standard, the decrease of the absorbance was expressed as 100, and the radical scavenging activity of the test substance was measured as equivalences to ascorbic acid. In this connection, a garcinol preparaion used as the test substance, and vitamin E and (+)-catechin were used as references.
# [4] = anti-oxidation activity (linoleic acid/β-carotene emulsion, autoxidation); conditions: 0.0005% test substance, pH 7.0, 25° C., 460 nm; lesser ratio = stronger
# Method: The anti-oxidation activities was evaluated according to the method by A. Ben Aziz et al. […] That is to say, an emulsion of linoleic acid and β-carotene was first prepared with Tween 20 (Sigma) and adjusted to pH 7.0 with 0.1 M trishydroxyaminomethane-hydrochloride. […] During the reaction, the color degradation of β-carotene in association with the autoxidation of linoleic acid was measured with the passage of time as the decreased value of the optical density at 460 nm with a spectrophotometer. […] The antioxidant activity was measured as a ratio of the decreasing rate of absorbance in the presence of the substance to be tested to the decreasing rate of absorbance in the absence of the antioxidant.
# [5] = anti-oxidation activity in a lipid oxidation process promoted by a metal ion (copper sulfate); conditions: 5 μM copper sulfate added; lesser ratio = stronger
# Method: The anti-oxidation activities was evaluated according to the method by A. Ben Aziz et al. (see Phytochemistry, 10, 1445, 1971). That is to say, an emulsion of linoleic acid and β-carotene was first prepared with Tween 20 (Sigma) and adjusted to pH 7.0 with 0.1 M trishydroxyaminomethane-hydrochloride. To the emulsion was added 0.0005% of a substance to be tested, and the mixture was reacted at 25° C.
# During the reaction, the color degradation of β-carotene in association with the autoxidation of linoleic acid was measured with the passage of time as the decreased value of the optical density at 460 nm with a spectrophotometer.
# The substance to be tested was a garcinal preparation obtained in Referential Example 1, and vitamin E and (+)-catechin were used as Comparative Example. The antioxidant activity was measured as a ratio of the decreasing rate of absorbance in the presence of the substance to be tested to the decreasing rate of absorbance in the absence of the antioxidant. That is, the substance is judged to have an antioxidant activity when the ratio is less than 1, and thus it is predicated that the lesser the ratio, the stronger the antioxidant activity.
# The oxidation process of linoleic acid in Experimental Example 1 is promoted by a metal ion. If 5 μM of copper sulfate is added to the reaction system, the color-degradation rate of β-carotene is promoted by about 30%. When garcinol was added to this system, the ratio of the decreasing rate of absorbance was 0.57. In this connection, it was 0.13 for vitamin E and 0.84 for (+)-catechin.
# bovine serum albumin [6] = experiment: Maillard reaction inhibiting activity (bovine serum albumin/D-fructose)
# Method: (§3) A solution containing bovine serum albumin (4 mg/ml), 500 mM D-fructose and 200 mM potassium phosphate buffer (pH 7.4) was aseptically prepared. To the solution was added 0.1 mM of a test substance. The substance insoluble in water was added as an ethanolic solution so as the final concentration of ethanol to be less than 1%. After incubation of these solutions at 37° C. for 5 days, equivalent volume of a cold 10% trichloroacetic acid solution was added to the solution to precipitate proteins. The precipitate was collected by centrifugation, further washed with a cold 5% trichloroacetic acid solution, and dissolved again in a 200 mM potassium phosphate buffer. The solution was diluted appropriately with distilled water, and the fluorescence intensity at 425 nm was measured with an excitation wave length at 350 nm in a fluorescence spectrophotometer (Shimadzu Seisakusho, Ltd.). The inhibition activity was calculated from the following equation.
# (§4) Inhibition activity (%)=(Fc-Fs)/(Fc-Fb)×100
# (§5) Fs: fluorescence intensity in the presence of test substance;
# (§6) Fc: fluorescence intensity in the absence of test substance;
# (§7) Fb: fluorescence intensity in the absence of fructose.
# bovine serum albumin [7] = conditions: bovine serum albumin/d-fructose, 120 h, 1000 µM, pH 7.4
# Method: as §3, §4, §5, §6, §7
# bovine lens α-crystallin = experiment: α-crystallin crosslinking polymerization inhibiting activity; type: biochemical; conditions: 0.1 mM, 500 mM D-fructose, pH 7.4, 37° C., 2 weeks
# Method: The effect of garcinol on bovine lens α-crystallin crosslinking polymerization reaction was evaluated. […] The gel after electrophoresis was stained with Coomassie Brilliant Blue, and the protein amounts in bands were determined with a densitometer. The crosslinking polymerization inhibiting activity of the protein was calculated from the following equation.
# Protein polymerization inhibiting activity (%)=(Ps-Pc)/Pc×100
# polymerization degree of protein=band density of polymerized protein/band density of monomer protein;
# Ps: polymerization degree of protein in the presence of test substance;
# Pc: polymerization degree of protein in the absence of test substance.
# [8] = superoxide scavenging activity test with phenazine methosulfate; conditions: 40 μM final concentration
# Method: The active oxygen scavenging activity was evaluated according to the superoxide scavenging activity test with phenazine methosulfate. That is to say, dihydronicotinamide adenine dinucleotide and phenazine methosulfate were first reacted in a buffer at a physiological hydrogen ion concentration. The absorbance at 560 nm of a formazan pigment produced by the reduction of Nitro Blue Tetrazolium with superoxide was measured. […] The ratio of decreases of absorbance was expressed as superoxide scavenging activity.
# bovine serum albumin [9] = experiment: suppression of generation of reactive oxygen species in the presence of metal ion (oxidation of bovine serum albumin in Fenton reaction); type: biochemical; conditions: 1 mM test substance, 10 μM copper ion, 20 mM hydrogen peroxide, 4 mg/ml BSA
# Method: The activity for suppressing the generation of reactive oxygen species in the presence of metal ion was evaluated by measuring the effect for suppressing the oxidation of bovine serum albumin by hydroxyl radical in the Fenton reaction system. That is to say, hydroxyl radical was first produced by divalent copper ion and hydrogen peroxide (Fenton reaction). Bovine serum albumin was oxidized by the hydroxyl radical, and thus carbonyl was produced. The carbonyl was reacted with 2,4-dinitrophenylhydrazine, and determined by measuring the absorbance at 365 nm. […] The ratio of decreases of absorbance was expressed as the activity for suppressing the generation of reactive oxygen species in the presence of metal ion.
compound,measurement,setting,value
"NC[C@H]1CC[C@H](C(=O)Oc2ccc(CCC(=O)O)cc2)CC1 [cetraxate hydrochloride, reference compound]",Length of ulcer,"gastric ulcer [1]; restrained water immersion 23° C., 7 hours, control 44.20 ± 18.10",18.80 ± 6.02 mm
same,Suppression rate,"gastric ulcer [1]; stress ulcer, vs. control",57.5%
same,Length of ulcer,gastric ulcer [2],14.30 ± 10.9 mm
same,Suppression rate,gastric ulcer [2],70.1%
vitamin E,DPPH radical scavenging activity (equivalences to ascorbic acid = 100),[3],25
same,antioxidant activity (ratio of the decreasing rate of absorbance with to without test substance),[4],0.10
same,ratio of the decreasing rate of absorbance (antioxidant activity with metal ion),[5],0.13
N=C(N)NN [Aminoguanidine],"Maillard reaction inhibition activity, result in words","bovine serum albumin [6]; 0.1 mM, 37° C., 5 days, pH 7.4",no activity
same,Maillard reaction inhibition activity,"bovine serum albumin [6]; 1 mM, 7200 min",no more than 43%
CC(C)=CC[C@H]1C[C@@]23C[C@@H](CC=C(C)C)C(C)(C)[C@@](CC=C(C)C)(C(=O)C(C(=O)c4ccc(O)c(O)c4)=C2OC1(C)C)C3=O [isogarcinol],Length of ulcer,gastric ulcer [2],22.40 ± 15.3 mm
same,Suppression rate,gastric ulcer [2],53.1%
CC(C)(S)[C@@H](N)C(=O)O [D-penicillamine],Maillard reaction inhibition activity,bovine serum albumin [7],27%
O=c1c(O)c(-c2ccc(O)c(O)c2)oc2cc(O)cc(O)c12 [quercetin],protein polymerization inhibiting activity,bovine lens α-crystallin,33%
same,superoxide scavenging rate,[8],63%
same,"oxidation of bovine serum albumin, result in words",bovine serum albumin [9],promoted oxidation rather extensively
Oc1cc(O)c2c(c1)O[C@H](c1ccc(O)c(O)c1)[C@@H](O)C2 [(+)-catechin],DPPH radical scavenging activity (equivalences to ascorbic acid = 100),[3],73
same,antioxidant activity (ratio of the decreasing rate of absorbance with to without test substance),[4],0.18
same,superoxide scavenging rate,[8],25%
same,ratio of the decreasing rate of absorbance (antioxidant activity with metal ion),[5],0.84
same,"oxidation of bovine serum albumin, result in words",bovine serum albumin [9],promoted oxidation rather extensively
